# In patent publication US20260124315A1, “CATALYST AUGMENTED TARGET SPECIFIC POLYPEPTIDE” (TECHNISCHE UNIVERSITAT BERLIN, priority 2022, published 2026):
# Read-outs that look alike come from different tables or passages of the source. No end group written: not given here.
# B1: NB—Pd: HER2 nanobody-HRGDH fusion complexed with Pd after incubation with Pd(OAc)2 at molar ratio 1:1 (conjugate)
# VHH: QVQLQESGGGSVQAGGSLKLTCAASGYIFNSCGMGWYRQSPGRERELVSRISGDGDTWHKESVKGRFTISQDNVKKTLYLQMNSLKPEDTAVYFCAVCYNLETYWGQGTQVTVSSGGGGSHRGDHENLYFQSHHHHHH
# Legend:
# SK-BR-3 cells [1] = assay: Prodrug-into-drug conversion, extracellular, SK-BR-3; type: cell-based; details: for catalytic conversion of ProPTX into paclitaxel in cell culture: catalyst 1.4 μM + ProPTX 0.3 μM, SK-BR-3; for cell death: in combination with ProPTX 0.3 μM, SK-BR-3, 5 days, PrestoBlue
# Experimental: Error bars: LSD from n=2. Significance was determined by one-way analysis of variance (ANOVA): ^nsP>0.05, *P<0.05.
# Error bars: ±SD from n=3.
# Extracellular conversion. […] The cells treated with PTX and ProPTX at 0.3 μM were used as positive and negative controls, respectively. After 5d, PrestoBlue cell viability reagent (10% v/v) was added to each well and the plate was incubated for 90 min. […] Experiments were performed in triplicates.
# SK-BR-3 cells were seeded and incubated with a solution of Pd(OAc)2 or Pd-peptide (Pd-HRGDHC) in combination with either DMSO or ProPTX (0.3 μM). After 5 days, Presto blue cell viability reagent was added and fluorescence emission was detected using a multilabel plate reader.
# After 5d, Presto blue cell viability reagent was added to each well and fluorescence emission was detected using a multilabel fluorescence reader.
# [2] = Catalytic screening of metallopeptides (ProRes to resorufin fluorescence); details: Pd-peptides 10 μM, ProRes 100 μM, PBS, 37° C., 24 h
# Experimental: Catalytic screening of metallopeptides. Metallopeptides, either mixed or as individual Pd-peptides (Pd-HRGDHC (SEQ ID NO: 6) or Pd-LLEYLKR (SEQ ID NO: 7) (10 μM) were incubated with Pd-labile off/on sensor O-propargyl-resorufin (ProRes)^2 (100 μM) in PBS (500 μL). The mixtures were shaken at 700 rpm and 37° C. in a Thermomixer and reactions were monitored after 24 h using a FLUOstar Omega multilabel reader (Ex/Em: 540/590 nm).
# [3] = test system: SK-BR-3 breast cancer cells; assay: Dose-response of paclitaxel versus paclitaxel prodrug in SK-BR-3 cells; type: cell-based; details: Homo sapiens, semilog dose-response
# From the text: This vast drop of anticancer activity highlights the essential role of the C2′-OH of PTX for binding its target.
# [4] = Fluorogenic catalysis of ProRes in PBS versus serum (10% FBS in PBS); details: 37° C., 24 h
# Experimental: (a) Catalytic deprotection of the propargylated dye (ProRes, 100 μM) occurs in the presence of either Pd(OAc)2 (Pd, 1.4 μM), or in the presence of NB-HRGDH-Pd (NB—Pd, 1.4 μM). The catalysis was performed at physiological conditions (pH 7.4, 37° C.) in PBS or in serum (10% FBS in PBS). The fluorescence measurements were normalised against the value of fluorescence after catalysis in PBS (100%) and corrected by the fluorescence of the product, Resorufin, in PBS and serum, respectively. (b) Scheme representing the catalysis of ProRes by NB—Pd in the presence of serum and the catalytic deactivation of Pd(OAc)2 by serum.
# In solution. […] The mixtures were shaken at 700 rpm and 37° C. in a Thermomixer, and reactions were monitored after 24 h using a FLUOstar Omega multilabel reader (Ex/Em: 540/590 nm). […] The fluorescence measurements were normalised against the value of fluorescence after catalysis in PBS (100%) and corrected by the fluorescence of the product, Resorufin, in PBS and serum, respectively.
# Pd(OAc)2 and Pd-peptide (Pd-HRGDHC) were incubated with the previously described sensor (ProRes) in PBS or in 10% FBS—PBS at 37° C. in a Thermomixer, and reactions were monitored after 24 h using a multilabel reader. Fluorescence increment was observed after catalysis. […]
# SK-BR-3 cells [5] = details: read-out: EC50 (cell viability), SK-BR-3, day 5, PrestoBlue
# Experimental: Dose-response curves of Pd (Pd(OAc)2) and Pd-peptide (HRGDHC-Pd) at different concentrations (100-1 μM) in HER2+ breast cancer cell line SK-BR-3. Cell viability was measured on day 5 using PrestoBlue reagent. Error bars: ±SD from n=3.
# Cell viability was measured on day 5 using PrestoBlue reagent. Error bars: ±SD from n=3.
# Cells were seeded in a 96-well plate format (at 2,000 cells per well) and incubated for 24 h before treatment. […] Untreated cells were incubated with DMSO (0.1% v/v). After 5d of incubation, cell viability was determined as described above. All conditions were normalised to the untreated cells (100%) and curves fitted using GraphPad Prism using a sigmoidal variable slope curve. Experiments were performed in triplicates.
# Presto blue reagent was added to quantitatively measure viability by fluorescence detection and EC50 values were calculated by plotting dose-response curves.
# [6] = test system: HER2 negative cells MCF-7; assay: Prodrug-into-drug conversion, intracellular (1 h incubation, wash), MCF-7; type: cell-based; details: NB—Pd 1 h, washed, then ProPTX 0.3 μM, 5 days
# Experimental: Cell viability was measured on day 5 using PrestoBlue reagent. Error bars: LSD from n=3. Significance was determined by one-way analysis of variance (ANOVA): ^nsP>0.05, *P<0.05, **P<0.01, ****P<0.0001.
# Intracellular conversion. SK-BR-3 and MCF-7 cells were seeded in a 96-well plate format (at 2,000 cells per well) and incubated for 24 h before treatment. Each well was then replaced with a solution of NB—Pd (20 μg/mL, 1.4 μM) in culture media and incubated for 1 h. Cells were then washed with PBS and fresh media containing either DMSO (0.1% v/v) or ProPTX (0.3 μM) was added. The cells treated with PTX and ProPTX at 0.3 μM were used as positive and negative controls, respectively. After 5d, PrestoBlue cell viability reagent (10% v/v) was added to each well and the plate was incubated for 90 min. Fluorescence emission was detected using a FLUOstar Omega multilabel reader (Ex/Em: 540/590 nm). Experiments were performed in triplicates.
# SK-BR-3 and MCF-7 cells (HER2 positive and negative respectively) were seeded and incubated with a solution of NB—Pd for 1 h. Cells were then washed with PBS and fresh media containing either DMSO or ProPTX (0.3 μM) was added. After 5 days, Presto blue cell viability reagent was added and fluorescence emission was detected. […] Results are to be found in FIG. 6.
molecule,measurement,setting,value
"C1=C\CC/C=C\CC/1.[Cl][Pd][Cl] [Pd(Cod)Cl2, reference compound]",catalytic conversion of ProPTX into paclitaxel in cell culture,SK-BR-3 cells [1],poor catalytic efficiency
LLEYLKR (also: Pd complex) [reference compound],catalytic activity (conversion of ProRes into fluorescent resorufin),[2],does not show any catalytic activity
"CC(=O)O[C@H]1C(=O)[C@@]2(C)[C@H]([C@H](OC(=O)c3ccccc3)[C@]3(O)C[C@H](OC(=O)[C@H](O)[C@@H](NC(=O)c4ccccc4)c4ccccc4)C(C)=C1C3(C)C)[C@]1(OC(C)=O)CO[C@@H]1C[C@@H]2O [PTX, paclitaxel]",EC50,[3],0.0018 µM
"CC(=O)[O-].CC(=O)[O-].[Pd+2] [Pd(OAc)2, reference compound]",catalytic activity in serum,[4]; 10% FBS-PBS,lost its catalytic properties
same,EC50,SK-BR-3 cells [5],23 µM
same,EC50,SK-BR-3 cells [5]; listed as Pd,39 µM
same,catalytic conversion of ProPTX into paclitaxel in cell culture,SK-BR-3 cells [1],Non-significant catalysis
HRGDHC-OH [Pd-peptide],catalytic activity (conversion of ProRes into fluorescent resorufin),[2],show catalytic activity
same,catalytic activity in serum relative to catalytic activity in PBS,[4]; 10% FBS-PBS vs PBS,at least 18%
same,catalytic conversion of ProPTX into paclitaxel in cell culture,SK-BR-3 cells [1],converting the prodrug
same,cell death,SK-BR-3 cells [1],> 40%
B1,effect on cell viability,[6],no effect
same,cell death,SK-BR-3 cells [1],> 70%
